Experimental findings from ChEMBL document CHEMBL1681661, “Design of novel CXCR4 antagonists that are potent inhibitors of T-tropic (X4) HIV-1 replication” (Bioorg Med Chem Lett, 2011) are described below.

One may read the CC50 as the concentration that lowers cell viability or growth by half. Broadly, the IC50 is the point on the concentration scale where inhibition reaches its midpoint. The term AUC(0-inf) denotes the area under the concentration-time curve extrapolated to infinity. One may read the Cmax as the maximum level reached in the sampled fluid or tissue. As a reminder, the bioavailability is dose-corrected exposure relative to a reference, in per cent. Usually clearance stands for the rate of elimination divided by the concentration. Broadly, the half-life is the time in which the quantity being followed falls by half.

Data set [1] is described as follows: Cytotoxicity against human MT4 cells expressing CD4 and CXCR4 assessed as cell viability. Format: cell-based.
Data set [2] has as its system Human immunodeficiency virus 1. Nature of the data set: Antiviral activity against X4 tropic HIV1 NL4.3 infected in CD4 and CXCR4 expressing human MT4 cells assessed as inhibition of viral cytopathicity. Format: functional, organism-based. The conditions noted are these: Human immunodeficiency virus 1, NL4.3, MT4. In general terms: Cytopathic effects are the visible damage that an infection or toxin causes in cultured cells.

A short description of data set [3]: AUC (0 to infinity) in dog. Format: ADME, organism-based, Canis lupus familiaris. Details: time infinity; concentration or dose not given beside the values. As to conditions: plasma.
Data set [4] can be described thus: Cmax in rat. Format: ADME, organism-based. The conditions noted are these: in vivo.
In data set [5] the test system is Human immunodeficiency virus 1. Nature of the data set: Antiviral activity against X4 tropic HIV1 NL4.3 infected in human PBMC assessed as inhibition of viral cytopathicity. Format: functional, organism-based. The conditions noted are these: Human immunodeficiency virus 1, NL4.3.
Data set [6] in a line: Cmax in dog. The conditions noted are these: in vivo. Format: ADME, organism-based, Canis lupus familiaris.
Data set [7] has as its system Human immunodeficiency virus 1. Kind of data set: Antiviral activity against X4 tropic HIV1 NL4.3 infected in human PBMC assessed as inhibition of viral cytopathicity in presence of 1 mg/ml of alpha-acid glycoprotein. Format: functional.
The nature of data set [8]: AUC (0 to infinity) in rat. Format: ADME, organism-based. Also noted: time infinity; concentration or dose not given beside the values. The conditions noted are these: plasma.
A short description of data set [9]: Oral bioavailability in rat at 100 umol/kg, […]. Format: ADME, organism-based. As to conditions: in vivo.
Data set [10] is described as follows: Clearance in rat at 10 umol/kg, iv. Format: ADME, organism-based. As to conditions: in vivo.
Data set [11] in a line: Volume of distribution at steady state in rat at 10 umol/kg, iv. As to conditions: in vivo, read-out: Vdss. Format: ADME, organism-based.
Data set [12] can be described thus: Half life in rat at 10 umol/kg, iv. Format: ADME, organism-based. As to conditions: in vivo.
Data set [13] in a line: Half life in dog at 5 umol/kg, iv. Format: ADME, organism-based, Canis lupus familiaris. As to conditions: in vivo.
Data set [14] concerns the target T1, C-X-C chemokine receptor type 4 (Homo sapiens, UniProt P61073). Kind of data set: Displacement of [125I]SDF-1alpha from CXCR4 in human CEM-CCRF cells by liquid scintillation counting. Format: cell-based. A general note: Loss of bound radioactivity is the signal in a displacement assay; it reports binding, not function.
Data set [15] is described as follows: Volume of distribution at steady state in dog at 5 umol/kg, iv. Format: ADME, organism-based, Canis lupus familiaris. The conditions noted are these: in vivo, read-out: Vdss.
A short description of data set [16]: Clearance in dog at 5 umol/kg, iv. Format: ADME, organism-based, Canis lupus familiaris. As to conditions: in vivo.
The nature of data set [17]: Oral bioavailability in dog at 12.5 umol/kg. The conditions noted are these: in vivo. Format: ADME, organism-based, Canis lupus familiaris.
For data set [18], the target named is T1, C-X-C chemokine receptor type 4. Kind of data set: Antagonist activity at CXCR4 in human CEM-CCRF cells assessed as inhibition of SDF-1-induced calcium signaling. Format: functional, cell-based.

T1 sequence (P61073 whole entry): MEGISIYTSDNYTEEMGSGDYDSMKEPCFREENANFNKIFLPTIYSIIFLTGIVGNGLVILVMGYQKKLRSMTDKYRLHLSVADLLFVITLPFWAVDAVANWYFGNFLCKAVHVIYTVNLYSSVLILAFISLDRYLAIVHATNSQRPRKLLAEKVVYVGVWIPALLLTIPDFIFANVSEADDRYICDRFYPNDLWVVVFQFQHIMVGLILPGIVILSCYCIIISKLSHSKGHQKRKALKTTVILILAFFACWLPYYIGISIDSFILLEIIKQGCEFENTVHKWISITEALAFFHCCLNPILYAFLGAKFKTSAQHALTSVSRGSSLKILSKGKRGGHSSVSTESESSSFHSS

As for `NCCCCN(Cc1ncccc1Cl)C1CCCc2cccnc21` (stereo not given), in data set [1], the CC50 was found to be 191000 nM. Further, in [2], the IC50 was 0.4 nM.
On the same counts, the results for `CC(c1ccccn1)N(CCCCN)Cc1nc2ccccc2[nH]1` (stereo not given) are over 161000 nM and 18 nM.
On the same counts, the results for `CCC(c1ccccn1)N(CCCCN)Cc1nc2ccccc2[nH]1` (stereo not given) are over 162000 nM and 874 nM.
Regarding `CC(C)C(c1ccccn1)N(CCCCN)Cc1nc2ccccc2[nH]1` (stereo not given), the CC50 in data set [1] is over 162000 nM. Besides, in [2], the concentration for half-maximal inhibition (IC50) worked out at 16300 nM.
On the same counts, the results for `NCCCCN(Cc1nc2ccccc2[nH]1)C(c1ccccc1)c1ccccn1` (stereo not given) are over 148000 nM and 13300 nM.
On the same counts, the results for `CC(C)(c1ccccn1)N(CCCCN)Cc1nc2ccccc2[nH]1` are over 159000 nM and 2500 nM.
The like results for `NCCCCN(Cc1ccccn1)Cc1nc2ccccc2[nH]1` were, in that order, 151000 nM and 41 nM.
Take `NCCCCN(Cc1nc2ccccc2[nH]1)Cc1ncccc1O`: the CC50 in data set [1] was over 149000 nM. The IC50 in data set [2] is over 149000 nM.
For the compound `CC(C)c1cccnc1CN(CCCCN)Cc1nc2ccccc2[nH]1`, the CC50 in [1] amounted to 145000 nM. For the same compound, the concentration for half-maximal inhibition (IC50) in data set [2] was found to be 34 nM.
On to `Cc1cccnc1C(C)N(CCCCN)Cc1nc2ccccc2[nH]1` (stereo not given), for which the CC50 in data set [1] is over 146000 nM. The IC50 in [2] amounted to 505 nM.
For the compound `Cc1ccnc(C(C)N(CCCCN)Cc2nc3ccccc3[nH]2)c1` (stereo not given), the half-maximal cytotoxic concentration (CC50) in [1] is over 142000 nM. The IC50 in data set [2] is 438 nM.
Consider `Cc1ccc(C(C)N(CCCCN)Cc2nc3ccccc3[nH]2)nc1` (stereo not given), for which, in data set [1], the cytotoxic concentration (CC50) was over 146000 nM. Further, the IC50 in [2] worked out at 3.8 nM.
Take `Cc1cccc(C(C)N(CCCCN)Cc2nc3ccccc3[nH]2)n1` (stereo not given): the CC50 in data set [1] is over 167000 nM. In [2], the IC50 is 4100 nM.
For `CC(c1cccc(N)n1)N(CCCCN)Cc1nc2ccccc2[nH]1` (stereo not given), the CC50 in [1] was over 149000 nM. In addition, the concentration for half-maximal inhibition (IC50) in [2] was 2290 nM.
Turning to `Cc1cccnc1CN(CCCCN)C(C)c1ccccn1` (stereo not given), the half-maximal cytotoxic concentration (CC50) in data set [1] stood at 45400 nM. Also, in [2], the IC50 was 1.1 nM.
For the compound `Cc1cccc(CN(CCCCN)[C@H]2CCCc3cccnc32)n1`, the area under the curve AUC(0-inf) in data set [3] amounted to 7.75 µM·h; in [8], 8.75 µM·h. Besides, the highest concentration (Cmax) in [4] is 1460 nM; in [6], 2060 nM. In addition, the values for the IC50 in data set [5] and in [2] were 15.8 nM and 2.4 nM, respectively. Further, in data set [7], the “fold change (FC)” value worked out at 0.6.
Take `Cc1cnc(CN(CCCCN)[C@H]2CCCc3cccnc32)c(C)c1`: the AUC(0-inf) in [3] came out at 22.1 µM·h; in data set [8] it was 20.7 µM·h. Also, the figures for the bioavailability in data set [9] and in data set [17] were 42% and 51%, respectively. In addition, the clearance amounted to 31.7 mL/min/kg in [10] and 3.3 mL/min/kg in [16]. The highest concentration (Cmax) in data set [4] stood at 2700 nM; in data set [6], 7160 nM. In addition, the IC50 in data set [5] was 3.6 nM; in [14], 62.9 nM; in [2], 7.7 nM. The “fold change (FC)” value in [7] is on record as 2.8. Further, the results for the Vd in [11] and in data set [15] were 28.5 L/kg and 8.7 L/kg, respectively. Further, the half-life in data set [12] was 10.5 h; in data set [13], 39.6 h.
Consider `NCCCCN(Cc1ncccc1N)[C@H]1CCCc2cccnc21`, for which the AUC(0-inf) in data set [3] was determined as 21.2 µM·h; in data set [8], 8.73 µM·h. Further, the values for the Cmax in [4] and in data set [6] were 1660 nM and 7740 nM, respectively. Also, the values for the IC50 in data set [5] and in data set [2] were 2.1 nM and 1.6 nM, respectively. In addition, the “fold change (FC)” value in [7] is recorded as 4.3.
Regarding `C[C@@H](c1ccccn1)N(CCCCN)Cc1nc2ccccc2[nH]1`, the AUC(0-inf) in [3] amounted to 1.7 µM·h; in data set [8] it was 0.33 µM·h. Besides, the Cmax in data set [4] was 180 nM; in data set [6], 1330 nM. For the same compound, the 50% inhibitory concentration (IC50) in data set [5] was determined as 2 nM; in data set [2], 1.4 nM. In addition, in data set [7], the “fold change (FC)” value came to 5.4.
Take `Cc1cccnc1CN(CCCCN)[C@@H](C)c1ccccn1`: the figures for the AUC(0-inf) in [3] and in data set [8] were 7.49 µM·h and 11.2 µM·h, respectively. In data set [4], this compound gave a Cmax of 1580 nM. Also, the IC50 in data set [5] turned out to be 2.1 nM; in data set [2], 1.1 nM. For the same compound, the “fold change (FC)” value in [7] was 14.2.
Regarding `NCCCCN(Cc1ccccn1)C1CCCc2cccnc21` (racemic), the CC50 in data set [1] amounted to 165000 nM. In addition, the IC50 in data set [2] turned out to be 15.3 nM.
On the same counts, the results for `Cc1cccnc1CN(CCCCN)C1CCCc2cccnc21` (racemic) are 32400 nM and 23.3 nM.
The like results for `Cc1ccnc(CN(CCCCN)C2CCCc3cccnc32)c1` (racemic) were, in that order, 36900 nM and 47.8 nM.
Consider `Cc1ccc(CN(CCCCN)C2CCCc3cccnc32)nc1` (racemic), for which the IC50 was 35 nM in [18] and 5.3 nM in data set [2]. For the same compound, the cytotoxic concentration (CC50) in [1] came out at 35300 nM.
In the case of `Cc1cccc(CN(CCCCN)C2CCCc3cccnc32)n1` (racemic), the cytotoxic concentration (CC50) in data set [1] came to 299000 nM. In addition, in data set [2], the half-inhibitory concentration (IC50) turned out to be 2.9 nM.
On the same counts, the results for `Cc1cc(C)nc(CN(CCCCN)C2CCCc3cccnc32)c1` (racemic) are 149000 nM and 17 nM.
`Cc1cnc(CN(CCCCN)C2CCCc3cccnc32)c(C)c1` (racemic): the half-maximal inhibitory concentration (IC50) in data set [18] turned out to be 19 nM; in [2], 0.63 nM. Further, the CC50 in data set [1] is 32600 nM.
Take `NCCCCN(Cc1cccc(N)n1)C1CCCc2cccnc21` (racemic): the 50% cytotoxic concentration (CC50) in data set [1] amounted to 158000 nM. Besides, the IC50 in data set [2] was 30 nM.
On the same counts, the results for `COCc1cccc(CN(CCCCN)C2CCCc3cccnc32)n1` (racemic) are over 154000 nM and 553 nM.
`NCCCCN(Cc1ncccc1O)C1CCCc2cccnc21` (racemic): the CC50 in data set [1] worked out at 149000 nM. In addition, the concentration for half-maximal inhibition (IC50) in data set [2] came out at 113 nM.
For `NCCCCN(Cc1ncccc1N)C1CCCc2cccnc21` (racemic), the cytotoxic concentration (CC50) in [1] came out at 169000 nM. For the same compound, in data set [2], the IC50 is 19.7 nM.
Regarding `CC(C)c1cccnc1CN(CCCCN)C1CCCc2cccnc21` (racemic), in data set [1], the CC50 stood at 33800 nM. The 50% inhibitory concentration (IC50) in [2] turned out to be 8.4 nM.
The like results for `NCCCCN(Cc1ncccc1CO)C1CCCc2cccnc21` (racemic) were, in that order, 155000 nM and 2.1 nM.
Turning to `CC(c1ccccn1)N(CCCCN)Cc1ncccc1N` (racemic), the IC50 in [18] worked out at 72 nM; in [2] it was 18.4 nM. Also, in data set [1], the CC50 was 167000 nM.
On the same counts, the results for `CC(c1ccccn1)N(CCCCN)Cc1ncccc1C(F)(F)F` (racemic) are 111 nM, 39.1 nM and over 155000 nM.
As for `CC(c1ccccn1)N(CCCCN)Cc1ncccc1C(C)(C)C` (racemic), the 50% cytotoxic concentration (CC50) in [1] stood at 158000 nM. In addition, in data set [2], the half-inhibitory concentration (IC50) was 1.6 nM.
On to `Cc1ccc(CN(CCCCN)C(C)c2ccccn2)nc1` (racemic), for which, in data set [1], the half-maximal cytotoxic concentration (CC50) was 158000 nM. Moreover, the IC50 in [2] turned out to be 48.1 nM.
Regarding `Cc1cccc(CN(CCCCN)C(C)c2ccccn2)n1` (racemic), the results for the IC50 in [18] and in data set [2] were 183 nM and 15 nM, respectively. Also, the 50% cytotoxic concentration (CC50) in data set [1] is over 145000 nM.
Regarding `Cc1cnc(CN(CCCCN)C(C)c2ccccn2)c(C)c1` (racemic), the half-maximal inhibitory concentration (IC50) in [18] was determined as 20 nM; in data set [2] it was 1.8 nM. Besides, in data set [1], the half-maximal cytotoxic concentration (CC50) is 163000 nM.
Regarding `Cc1ccnc(C(C)N(CCCCN)Cc2ncccc2C)c1` (racemic), the CC50 in [1] worked out at 138000 nM. Besides, in [2], the half-maximal inhibitory concentration (IC50) is 0.3 nM.
`NCCCCN(Cc1nc2ccccc2[nH]1)[C@H]1CCCc2cccnc21` [MAVORIXAFOR]: the IC50 in data set [2] came to 4.8 nM.
